What all share (test): inhibition of tumour cell growth, NCI panel, 48 h
The test system of assay [1] is CAKI-1.
Assay [2] relates to DMS-114.
The subject of assay [3] is HCT-116.
The subject of assay [4] is HCT-15.
For assay [5], the system named is HOP-62.
The test system of assay [6] is HT-29.
The subject of assay [7] is Hs-578T.
Assay [8] has as its system MCF7.
Assay [9] has as its system MDA-MB-231.
In assay [10] the test system is MOLT-4.
Assay [11] relates to NCI-H226.
Assay [12] deals with NCI-H23.
The test system of assay [13] is NCI-H460.
Assay [14] relates to OVCAR-3.
Assay [15] deals with SF-268.
The subject of assay [16] is SK-OV-3.
In assay [17] the test system is SW-620.
The subject of assay [18] is U-251.
For assay [19], the system named is UACC-62.
The subject of assay [20] is UO-31.

Each structure is given as a SMILES string.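 Briefly, cells in 96-well plates were exposed to five compound concentrations for 48 h, and endpoints were estimated by linear interpolation. At the GI50, growth is halved.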 Active and inactive are the calls of the source. No stated cut-off is given here; in the data, active = GI50 up to about 1.1 µM and inactive = higher. Where only a bound is given, the exact number is not on record here.

As to `COc1ccccc1NC(=O)C1=C(C)NC(C)=C(C(=O)Nc2ccccc2OC)C1c1ccco1`, the GI50 was 4.09 µM (inactive) in assay [1]; 2.87 µM (inactive) in assay [2]; 4.36 µM (inactive) in assay [3]; 4.76 µM in [4]; 6.28 µM (inactive) in assay [5]; 3.92 µM (inactive) in assay [6]. Further, the GI50 in assay [7] is 3.1 µM (inactive); in assay [8], 3.59 µM (inactive); in assay [9], 23.6 µM (inactive); in [10], 3.87 µM (inactive); in assay [11] it was 7.94 µM (inactive); in assay [12], 6.4 µM (inactive). The GI50 in [13] is 3.56 µM (inactive); in assay [14], 2.91 µM (inactive); in [15] it was 10.3 µM (inactive); in assay [16], 7.01 µM (inactive); in [17] it was 4.49 µM (inactive); in assay [18] it was 5.86 µM (inactive). Besides, the GI50 in assay [19] is 3.12 µM (inactive); in [20], 9.27 µM (inactive).
As for `CCCCOC(=O)N[C@H]1CCc2cc(OC)c(OC)c(OC)c2-c2ccc(SC)c(=O)cc21`, the GI50 in [1] is < 0.01 µM (active); in assay [2], < 0.01 µM (active); in [3] it was < 0.01 µM (active); in assay [4], less than 0.01 µM; in assay [5], < 0.01 µM (active); in assay [6] it was < 0.01 µM (active). Moreover, the GI50 is < 0.01 µM (active) in assay [7]; < 0.01 µM (active) in assay [8]; < 0.01 µM (active) in assay [9]; < 0.01 µM (active) in assay [10]; 0.0931 µM (active) in [11]; < 0.01 µM (active) in assay [12]. Besides, the GI50 in assay [13] is < 0.01 µM (active); in assay [14] it was < 0.01 µM (active); in [15], < 0.01 µM (active); in assay [16], 0.0303 µM (active); in assay [17], < 0.01 µM (active); in assay [18], < 0.01 µM (active). Besides, the GI50 was < 0.01 µM (active) in assay [19] and < 0.0231 µM (active) in assay [20].
Regarding `Cc1c(/N=C\c2ccc(N(CCC#N)CCC#N)cc2)c(=O)n(-c2ccccc2)n1C`, the GI50 is > 100 µM (inactive) in assay [1]; > 100 µM (inactive) in [2]; > 100 µM (inactive) in [3]; greater than 100 µM in [4]; 31.5 µM (inactive) in assay [5]; > 100 µM (inactive) in assay [6]. Besides, the GI50 in assay [7] is 38 µM (inactive); in assay [8], > 63.7 µM (inactive); in [9] it was 77.4 µM (inactive); in assay [10], > 100 µM (inactive); in [11] it was > 100 µM (inactive); in assay [12], > 100 µM (inactive). For the same compound, the GI50 is > 100 µM (inactive) in assay [13]; > 90.6 µM (inactive) in assay [14]; 64.6 µM (inactive) in assay [15]; > 100 µM (inactive) in [16]; > 100 µM (inactive) in assay [17]; 39.2 µM (inactive) in assay [18]. In addition, the GI50 in assay [19] and in [20] was > 100 µM (inactive) in each case.
`COc1cc2c(cc1OC)C(OC)N(C)c1c-2ccc2cc3c(cc12)OCO3` (stereo not drawn): the GI50 in assay [1] was 1.98 µM (inactive); in [2], 1.17 µM (inactive); in [3] it was 1.66 µM (inactive); in [4], 40.7 µM; in assay [5] it was 1.4 µM (inactive); in assay [6] it was 1.38 µM (inactive). Further, the GI50 in [8] is 1.24 µM (inactive); in assay [9] it was 1.4 µM (inactive); in assay [10], 0.611 µM (active); in [11], 1.11 µM (active); in [12] it was 1.67 µM (inactive); in [13] it was 0.486 µM (active). Further, the GI50 in assay [14] is 1.5 µM (inactive); in assay [15] it was 0.094 µM (active); in [16], 0.916 µM (active); in assay [17], 0.571 µM (active); in assay [18], 0.356 µM (active); in assay [19], 0.8 µM (active). For the same compound, the GI50 in assay [20] is 18.1 µM (inactive).
`Cc1nc(C)c(C(=O)Nc2cccc3c2C(=O)NC3=O)cc1C(=O)Nc1cccc2c1C(=O)NC2=O`: the GI50 in assay [1] is > 100 µM (inactive); in assay [2], > 100 µM (inactive); in [3], > 100 µM (inactive); in [4], greater than 100 µM; in [5], > 100 µM (inactive); in assay [6], > 100 µM (inactive). Further, the GI50 in assay [10], in assay [11], in assay [12], in assay [13], in assay [14] and in assay [15] was > 100 µM (inactive) throughout. Besides, the GI50 in assay [16], in assay [17], in assay [18], in assay [19] and in assay [20] was > 100 µM (inactive) in each case.
For the compound `Cc1cc(/C=C/c2cc[n+](C)c3ccccc23)c(O)c2ncccc12`, the GI50 is 10.1 µM (inactive) in [1]; 0.214 µM (active) in [2]; 0.966 µM (active) in [3]; 4.65 µM in assay [4]; 1.87 µM (inactive) in assay [5]; 3.76 µM (inactive) in assay [6]. The GI50 in [10] was 0.646 µM (active); in assay [11] it was 1.87 µM (inactive); in [12], 1.7 µM (inactive); in assay [13] it was 0.597 µM (active); in assay [14], 0.288 µM (active); in assay [15], 0.973 µM (active). Moreover, the GI50 in assay [16] was 2.4 µM (inactive); in assay [17], 0.619 µM (active); in assay [18], 1.23 µM (inactive); in assay [19], 1.99 µM (inactive); in assay [20] it was 6.67 µM (inactive).

The record behind these values is ChEMBL document CHEMBL1201862, “PubChem BioAssay data set” (2004).
